Measured values published in patent US10336792B2, “Antimicrobial peptide dendrimers” (priority 2014, dated 2019).
Converted amounts (≈) assume the structure as drawn. Positions of bridges follow the written chain, without caps; N, C: chain ends. Non-standard residues stand in square brackets, D forms with d. Residues, ends and D or L forms follow the SMILES beside them. Groups on a side chain read outwards from the residue. Chains are numbered I, II in the order given. dDap = NC[C@@H](N)C(=O)O; Dap = NC[C@H](N)C(=O)O

Assays:
Format in all cases: cell-based
[1] = system: Escherichia coli (strain DH5α); settings: DH5α
Method: (§1) Antimicrobial activity was assayed against Bacillus subtilis (strain BR151), Escherichia coli (strain DH5α) and Pseudomonas aeruginosa (strain PA01). Microdilution broth method was used to determine the minimal inhibitory concentration (MIC). A colony of bacteria was grown in LB-medium overnight at 37° C. The concentration was quantified by measuring absorbance at 600 nm and diluted to OD600=0.1 (1×10^8 CFU/mL). The samples were prepared as stock solutions of 1 mg mL^−1 in H2O and diluted serially by ⅔ in nutrient LB in a 96-well microtiterplate (Cornstar, polypropylene, untreated). The sample solutions (50 μL) were mixed with the diluted bacterial suspension with an OD600 nm of 0.001 (50 μL). […] The plates were incubated at 37° C. until satisfactory growth (18-24 h). For each test, two columns of the plate were kept for sterility control (SC, broth only) and growth control (GC, broth with bacterial inoculums, no antibiotics). 10 μL of a solution of MTT (0.1% in H2O) was added to each well. The minimal inhibitory concentration (MIC) was defined as the lowest concentration of the antimicrobial substance (peptide dendrimer) that inhibited visible growth of the tested bacteria (yellow) with the unaided eye. For microbiological study the linear peptide LysTyrLysLysAlaLeuLysLysLeuAlaLysLeuLeu (SEQ ID No. 1) was used as reference.
(§2) The AMPD library was tested for their antimicrobial activity against B. subtilis BR151, a Gram-positive bacterium and E. coli DH5α, another Gram-negative bacterium, to cover a broader spectrum of different bacteria. […] Therefore no explicit SAR can be established, but clearly the hydrophobic amino acids Ala and Tyr seem to have a significant influence in reducing activity.

[2] = system: Bacillus subtilis (strain BR151); settings: strain BR151
Method: as §1, §2

[3] = system: Pseudomonas aeruginosa (strain PA01); assay: microbe, parasite or virus in culture; settings: strain
Summary of the method: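 P. aeruginosa PAO1 grown overnight in LB, diluted to OD600 0.001 and mixed with ⅔-step peptide dilutions, then incubated at 37 °C for 18–24 h. After MTT staining, the lowest concentration with no visible growth was read by eye as the MIC.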

Structure (SMILES)	MIC E. coli DH5α [1]	MIC B. subtilis BR151 [2]	MIC P. aeruginosa PAO1 [3]
CC(C)C[C@H](NC(=O)[C@H](CCCCN)NC(=O)[C@H](CNC(=O)[C@H](CC(C)C)NC(=O)[C@H](CCCCN)NC(=O)[C@H](CNC(=O)[C@H](CC(C)C)NC(=O)[C@H](CCCCN)NC(=O)[C@H](CNC(=O)[C@H](CC(C)C)NC(=O)[C@@H](N)CCCCN)NC(=O)[C@H](CC(C)C)NC(=O)[C@@H](N)CCCCN)NC(=O)[C@H](CC(C)C)NC(=O)[C@H](CCCCN)NC(=O)[C@H](CNC(=O)[C@H](CC(C)C)NC(=O)[C@@H](N)CCCCN)NC(=O)[C@H](CC(C)C)NC(=O)[C@@H](N)CCCCN)NC(=O)[C@H](CC(C)C)NC(=O)[C@H](CCCCN)NC(=O)[C@H](CNC(=O)[C@H](CC(C)C)NC(=O)[C@H](CCCCN)NC(=O)[C@H](CNC(=O)[C@H](CC(C)C)NC(=O)[C@@H](N)CCCCN)NC(=O)[C@H](CC(C)C)NC(=O)[C@@H](N)CCCCN)NC(=O)[C@H](CC(C)C)NC(=O)[C@H](CCCCN)NC(=O)[C@H](CNC(=O)[C@H](CC(C)C)NC(=O)[C@@H](N)CCCCN)NC(=O)[C@H](CC(C)C)NC(=O)[C@@H](N)CCCCN)C(N)=O [MSt-136, (KL)8(BKL)4(BKL)2(BKL)] (I: H-KL[Dap]([Leu-Lys])KL[Dap]KL[Dap]KL-NH2 / II: H-KL[Dap]([Leu-Lys])KL[Dap]KL / III: H-KL[Dap]([Leu-Lys])KL / IV: H-KL[Dap]([Leu-Lys])KL; amide I:6-IV:C, I:9-II:C, II:6-III:C)	1 µg/mL (≈ 0.236 µM)	2 µg/mL (≈ 0.472 µM)	2 µg/mL (≈ 0.472 µM)
CC(C)C[C@H](NC(=O)[C@H](CCCNC(=N)N)NC(=O)[C@H](CNC(=O)[C@H](CC(C)C)NC(=O)[C@H](CCCNC(=N)N)NC(=O)[C@H](CNC(=O)[C@H](CC(C)C)NC(=O)[C@H](CCCNC(=N)N)NC(=O)[C@H](CNC(=O)[C@H](CC(C)C)NC(=O)[C@@H](N)CCCNC(=N)N)NC(=O)[C@H](CC(C)C)NC(=O)[C@@H](N)CCCNC(=N)N)NC(=O)[C@H](CC(C)C)NC(=O)[C@H](CCCNC(=N)N)NC(=O)[C@H](CNC(=O)[C@H](CC(C)C)NC(=O)[C@@H](N)CCCNC(=N)N)NC(=O)[C@H](CC(C)C)NC(=O)[C@@H](N)CCCNC(=N)N)NC(=O)[C@H](CC(C)C)NC(=O)[C@H](CCCNC(=N)N)NC(=O)[C@H](CNC(=O)[C@H](CC(C)C)NC(=O)[C@H](CCCNC(=N)N)NC(=O)[C@H](CNC(=O)[C@H](CC(C)C)NC(=O)[C@@H](N)CCCNC(=N)N)NC(=O)[C@H](CC(C)C)NC(=O)[C@@H](N)CCCNC(=N)N)NC(=O)[C@H](CC(C)C)NC(=O)[C@H](CCCNC(=N)N)NC(=O)[C@H](CNC(=O)[C@H](CC(C)C)NC(=O)[C@@H](N)CCCNC(=N)N)NC(=O)[C@H](CC(C)C)NC(=O)[C@@H](N)CCCNC(=N)N)C(N)=O [MSt-137, (RL)8(BRL)4(BRL)2(BRL)] (I: H-RL[Dap]([Leu-Arg])RL[Dap]RL[Dap]RL-NH2 / II: H-RL[Dap]([Leu-Arg])RL[Dap]RL / III: H-RL[Dap]([Leu-Arg])RL / IV: H-RL[Dap]([Leu-Arg])RL; amide I:6-IV:C, I:9-II:C, II:6-III:C)	3 µg/mL (≈ 0.644 µM)	4 µg/mL (≈ 0.858 µM)	7 µg/mL (≈ 1.5 µM)
CC(C)C[C@H](NC(=O)[C@H](CCCNC(=N)N)NC(=O)[C@H](CNC(=O)[C@H](CC(C)C)NC(=O)[C@H](CCCNC(=N)N)NC(=O)[C@H](CNC(=O)[C@H](CC(C)C)NC(=O)[C@@H](N)CCCNC(=N)N)NC(=O)[C@H](CC(C)C)NC(=O)[C@@H](N)CCCNC(=N)N)NC(=O)[C@H](CC(C)C)NC(=O)[C@H](CCCNC(=N)N)NC(=O)[C@H](CNC(=O)[C@H](CC(C)C)NC(=O)[C@@H](N)CCCNC(=N)N)NC(=O)[C@H](CC(C)C)NC(=O)[C@@H](N)CCCNC(=N)N)C(N)=O [MSt-139, (RL)4(BRL)2(BRL)] (I: H-RL[Dap]([Leu-Arg])RL[Dap]RL-NH2 / II: H-RL[Dap]([Leu-Arg])RL; amide I:6-II:C)	17 µg/mL (≈ 7.87 µM)	16 µg/mL (≈ 7.4 µM)	2 µg/mL (≈ 0.926 µM)
CC(C)C[C@@H](NC(=O)[C@@H](CCCCN)NC(=O)[C@@H](CNC(=O)[C@@H](CC(C)C)NC(=O)[C@@H](CCCCN)NC(=O)[C@@H](CNC(=O)[C@@H](CC(C)C)NC(=O)[C@@H](CCCCN)NC(=O)[C@@H](CNC(=O)[C@@H](CC(C)C)NC(=O)[C@H](N)CCCCN)NC(=O)[C@@H](CC(C)C)NC(=O)[C@H](N)CCCCN)NC(=O)[C@@H](CC(C)C)NC(=O)[C@@H](CCCCN)NC(=O)[C@@H](CNC(=O)[C@@H](CC(C)C)NC(=O)[C@H](N)CCCCN)NC(=O)[C@@H](CC(C)C)NC(=O)[C@H](N)CCCCN)NC(=O)[C@@H](CC(C)C)NC(=O)[C@@H](CCCCN)NC(=O)[C@@H](CNC(=O)[C@@H](CC(C)C)NC(=O)[C@@H](CCCCN)NC(=O)[C@@H](CNC(=O)[C@@H](CC(C)C)NC(=O)[C@H](N)CCCCN)NC(=O)[C@@H](CC(C)C)NC(=O)[C@H](N)CCCCN)NC(=O)[C@@H](CC(C)C)NC(=O)[C@@H](CCCCN)NC(=O)[C@@H](CNC(=O)[C@@H](CC(C)C)NC(=O)[C@H](N)CCCCN)NC(=O)[C@@H](CC(C)C)NC(=O)[C@H](N)CCCCN)C(N)=O [MSt-154, (kl)8(bkl)4(bkl)2(bkl)] (I: H-[dK][dL][dDap]([dL-dK])[dK][dL][dDap][dK][dL][dDap][dK][dL]-NH2 / II: H-[dK][dL][dDap]([dL-dK])[dK][dL][dDap][dK][dL] / III: H-[dK][dL][dDap]([dL-dK])[dK][dL] / IV: H-[dK][dL][dDap]([dL-dK])[dK][dL]; amide I:6-IV:C, I:9-II:C, II:6-III:C)	2 µg/mL (≈ 0.472 µM)	2 µg/mL (≈ 0.472 µM)	6 µg/mL (≈ 1.42 µM)
CC(C)C[C@@H](NC(=O)[C@@H](CCCNC(=N)N)NC(=O)[C@@H](CCCCNC(=O)[C@@H](CC(C)C)NC(=O)[C@@H](CCCNC(=N)N)NC(=O)[C@@H](CCCCNC(=O)[C@@H](CC(C)C)NC(=O)[C@@H](CCCNC(=N)N)NC(=O)[C@@H](CCCCNC(=O)[C@@H](CC(C)C)NC(=O)[C@H](N)CCCNC(=N)N)NC(=O)[C@@H](CC(C)C)NC(=O)[C@H](N)CCCNC(=N)N)NC(=O)[C@@H](CC(C)C)NC(=O)[C@@H](CCCNC(=N)N)NC(=O)[C@@H](CCCCNC(=O)[C@@H](CC(C)C)NC(=O)[C@H](N)CCCNC(=N)N)NC(=O)[C@@H](CC(C)C)NC(=O)[C@H](N)CCCNC(=N)N)NC(=O)[C@@H](CC(C)C)NC(=O)[C@@H](CCCNC(=N)N)NC(=O)[C@@H](CCCCNC(=O)[C@@H](CC(C)C)NC(=O)[C@@H](CCCNC(=N)N)NC(=O)[C@@H](CCCCNC(=O)[C@@H](CC(C)C)NC(=O)[C@H](N)CCCNC(=N)N)NC(=O)[C@@H](CC(C)C)NC(=O)[C@H](N)CCCNC(=N)N)NC(=O)[C@@H](CC(C)C)NC(=O)[C@@H](CCCNC(=N)N)NC(=O)[C@@H](CCCCNC(=O)[C@@H](CC(C)C)NC(=O)[C@H](N)CCCNC(=N)N)NC(=O)[C@@H](CC(C)C)NC(=O)[C@H](N)CCCNC(=N)N)C(N)=O [MSt-155, (rl)8(krl)4(krl)2(krl)] (I: H-[dR][dL][dK]([dL-dR])[dR][dL][dK][dR][dL][dK][dR][dL]-NH2 / II: H-[dR][dL][dK]([dL-dR])[dR][dL][dK][dR][dL] / III: H-[dR][dL][dK]([dL-dR])[dR][dL] / IV: H-[dR][dL][dK]([dL-dR])[dR][dL]; amide I:6-IV:C, I:9-II:C, II:6-III:C)	4 µg/mL (≈ 0.807 µM)	6 µg/mL (≈ 1.21 µM)	11 µg/mL (≈ 2.22 µM)
